# “And” between values parts separate entries of the source, which are not always exact repeats. Equal entries are not always repeated.
# Test system: Huh-7.5 cells
# Assay: Cell viability assay ([…]-GLO)
# Type: cell-based, human
# Details: 10 μM
# Method in brief: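 Viability was read by luminescence, integrated for 1 second, after 30 min at 23° C. in […]-GLO reagent mixed equally with growth medium. Before lysis, Huh-7.5 cells had received compound for 72 h and were rinsed with PBS.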
row,SMILES,Cell Viability (% @ 10 μM)
1,Cc1ccc2nc(-c3ccc4nc(-c5ccc(NC(=O)c6ccc7nc(-c8ccc(NC(=O)OCC9c%10ccccc%10-c%10ccccc%109)cc8)sc7c6)cc5)sc4c3)sc2c1S(=O)(=O)O.N [Compound 36],95 ± 3% and 90 ± 4%
2,Cc1ccc2nc(-c3ccc(NC(=O)c4ccc(NC(=O)c5ccccc5)cc4)cc3)sc2c1S(=O)(=O)O.N [Compound 40],115 ± 3%
3,Cc1ccc2nc(-c3ccc4nc(-c5ccc(NC(=O)c6ccc(CNC(=O)OCC7c8ccccc8-c8ccccc87)cc6)cc5)sc4c3)sc2c1S(=O)(=O)O.N [Compound 41],102 ± 6%
4,Cc1ccc2nc(-c3ccc(NC(=O)c4ccc(NC(=O)OCC5c6ccccc6-c6ccccc65)cc4)cc3)sc2c1S(=O)(=O)O.N [Compound 42],108 ± 2%
5,Cc1ccc2nc(-c3ccc(NC(=O)c4ccc(NC(=S)Nc5ccccc5)cc4)cc3)sc2c1S(=O)(=O)O.N [Compound 43],106 ± 3%
6,Cc1ccc2nc(-c3ccc(NC(=O)c4ccc(NC(=O)c5ccc(C(F)(F)F)cc5)cc4)cc3)sc2c1S(=O)(=O)O.N [Compound 44],97 ± 7%
7,Cc1ccc2nc(-c3ccc(NC(=O)c4ccc(NC(=O)Nc5ccccc5)cc4)cc3)sc2c1S(=O)(=O)O.N [Compound 45],113 ± 4%

# Same assay, conditions: 10 μM compound, triplicate, average ± SD
row,SMILES,Cell viability (% viable) [%]
1,Cc1ccc2nc(-c3ccc4nc(-c5ccc(NC(=O)c6ccc7nc(-c8ccc(NC(=O)OCC9c%10ccccc%10-c%10ccccc%109)cc8)sc7c6)cc5)sc4c3)sc2c1S(=O)(=O)O.N [Compound 36],90 ± 4

# Test system: MBHA DNA substrate
# Assay: Modified FID assay, SYBR Green I
# Type: binding
# Details: SYBR Green I-FID; average (±SD) percent bound at 100 μM
# Method in brief: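 Affinity for the MBHA DNA substrate (0.32 μM) estimated by displacement of SYBR Green I (0.68 μM), ethidium bromide omitted. Each compound titrated in triplicate over three independent runs; EC50 from concentration-response fit, reported ± standard deviation.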
row,SMILES,DNA binding (%)
1,Cc1ccc2nc(-c3ccc4nc(-c5ccc(NC(=O)c6ccc7nc(-c8ccc(NC(=O)OCC9c%10ccccc%10-c%10ccccc%109)cc8)sc7c6)cc5)sc4c3)sc2c1S(=O)(=O)O.N [Compound 36],67 ± 5

# Same assay, conditions: SYBR Green, 100 μM
row,SMILES,FID (SG) % Displaced @ 100 μM [%]
1,Cc1ccc2nc(-c3ccc4nc(-c5ccc(NC(=O)c6ccc7nc(-c8ccc(NC(=O)OCC9c%10ccccc%10-c%10ccccc%109)cc8)sc7c6)cc5)sc4c3)sc2c1S(=O)(=O)O.N [Compound 36],67 ± 5
2,Cc1ccc2nc(-c3ccc(NC(=O)c4ccc(NC(=O)c5ccccc5)cc4)cc3)sc2c1S(=O)(=O)O.N [Compound 40],18 ± 2
3,Cc1ccc2nc(-c3ccc4nc(-c5ccc(NC(=O)c6ccc(CNC(=O)OCC7c8ccccc8-c8ccccc87)cc6)cc5)sc4c3)sc2c1S(=O)(=O)O.N [Compound 41],53 ± 25
4,Cc1ccc2nc(-c3ccc(NC(=O)c4ccc(NC(=O)OCC5c6ccccc6-c6ccccc65)cc4)cc3)sc2c1S(=O)(=O)O.N [Compound 42],44 ± 2
5,Cc1ccc2nc(-c3ccc(NC(=O)c4ccc(NC(=S)Nc5ccccc5)cc4)cc3)sc2c1S(=O)(=O)O.N [Compound 43],37 ± 4
6,Cc1ccc2nc(-c3ccc(NC(=O)c4ccc(NC(=O)c5ccc(C(F)(F)F)cc5)cc4)cc3)sc2c1S(=O)(=O)O.N [Compound 44],41 ± 2
7,Cc1ccc2nc(-c3ccc(NC(=O)c4ccc(NC(=O)Nc5ccccc5)cc4)cc3)sc2c1S(=O)(=O)O.N [Compound 45],17 ± 2

# Same assay, conditions: SYBR Green; read-out: FID (SG) EC50 (converted)
row,SMILES,EC50 [µM]
1,Cc1ccc2nc(-c3ccc4nc(-c5ccc(NC(=O)c6ccc7nc(-c8ccc(NC(=O)OCC9c%10ccccc%10-c%10ccccc%109)cc8)sc7c6)cc5)sc4c3)sc2c1S(=O)(=O)O.N [Compound 36],22
2,Cc1ccc2nc(-c3ccc(NC(=O)c4ccc(NC(=O)c5ccccc5)cc4)cc3)sc2c1S(=O)(=O)O.N [Compound 40],> 100
3,Cc1ccc2nc(-c3ccc4nc(-c5ccc(NC(=O)c6ccc(CNC(=O)OCC7c8ccccc8-c8ccccc87)cc6)cc5)sc4c3)sc2c1S(=O)(=O)O.N [Compound 41],56
4,Cc1ccc2nc(-c3ccc(NC(=O)c4ccc(NC(=O)OCC5c6ccccc6-c6ccccc65)cc4)cc3)sc2c1S(=O)(=O)O.N [Compound 42],> 100
5,Cc1ccc2nc(-c3ccc(NC(=O)c4ccc(NC(=S)Nc5ccccc5)cc4)cc3)sc2c1S(=O)(=O)O.N [Compound 43],> 100
6,Cc1ccc2nc(-c3ccc(NC(=O)c4ccc(NC(=O)c5ccc(C(F)(F)F)cc5)cc4)cc3)sc2c1S(=O)(=O)O.N [Compound 44],> 100
7,Cc1ccc2nc(-c3ccc(NC(=O)c4ccc(NC(=O)Nc5ccccc5)cc4)cc3)sc2c1S(=O)(=O)O.N [Compound 45],> 100

# Biological target: T1, HCV NS3 helicase NS3h_1b(con1) (Hepatitis C virus genotype 1b, UniProt Q9WMX2)
# T1 construct: truncated C-terminally His-tagged NS3 proteins lacking the N-terminal protease, called NS3h; His-tag (C); made in house
# Assay: biochemical
# Type: biochemical, hepatitis C virus genotype 1b(con1)
# Details: MBHA, DNA unwinding; mean ± SD of three titrations; read-out: Helicase IC50
# Method in brief: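 Molecular beacon helicase assay with His-tagged recombinant NS3 and a Cy5/IBRQ-labelled partially duplex DNA substrate (25 bp) or Tye665-labelled RNA substrate (19 bp). Reactions started with 1 mM ATP. Screening read fluorescence before and 30 min after ATP (ex 643/em 670 nm). For IC50, 5% v/v DMSO was present, initial velocities came from first-order decay fits, and a Hill equation was applied.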
# T1 sequence (Q9WMX2 1192-1657): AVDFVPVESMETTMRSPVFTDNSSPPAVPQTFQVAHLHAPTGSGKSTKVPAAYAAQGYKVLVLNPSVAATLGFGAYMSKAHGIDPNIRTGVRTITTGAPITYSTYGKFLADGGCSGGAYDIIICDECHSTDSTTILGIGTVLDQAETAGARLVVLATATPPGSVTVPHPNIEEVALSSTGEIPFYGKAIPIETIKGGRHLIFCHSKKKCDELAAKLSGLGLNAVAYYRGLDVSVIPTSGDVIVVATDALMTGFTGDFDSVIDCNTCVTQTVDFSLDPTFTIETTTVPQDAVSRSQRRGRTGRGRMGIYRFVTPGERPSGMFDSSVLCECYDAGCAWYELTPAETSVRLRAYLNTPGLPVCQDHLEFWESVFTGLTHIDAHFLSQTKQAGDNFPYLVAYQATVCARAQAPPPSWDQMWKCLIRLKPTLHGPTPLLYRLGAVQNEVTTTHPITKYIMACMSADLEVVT
row,SMILES,IC50 [µM]
1,Cc1ccc2nc(-c3ccc4nc(-c5ccc(NC(=O)c6ccc7nc(-c8ccc(NC(=O)OCC9c%10ccccc%10-c%10ccccc%109)cc8)sc7c6)cc5)sc4c3)sc2c1S(=O)(=O)O.N [Compound 36],4 ± 2.4

# Same assay, conditions: genotype 1b (con1); read-out: Target Potency MBHA (IC50 avg., μM) 1b (con1)
row,SMILES,IC50 [µM]
1,Cc1ccc2nc(-c3ccc4nc(-c5ccc(NC(=O)c6ccc7nc(-c8ccc(NC(=O)OCC9c%10ccccc%10-c%10ccccc%109)cc8)sc7c6)cc5)sc4c3)sc2c1S(=O)(=O)O.N [Compound 36],4 ± 2.4
2,Cc1ccc2nc(-c3ccc(NC(=O)c4ccc(NC(=O)c5ccccc5)cc4)cc3)sc2c1S(=O)(=O)O.N [Compound 40],81.4 ± 22
3,Cc1ccc2nc(-c3ccc4nc(-c5ccc(NC(=O)c6ccc(CNC(=O)OCC7c8ccccc8-c8ccccc87)cc6)cc5)sc4c3)sc2c1S(=O)(=O)O.N [Compound 41],4.4 ± 0.3
4,Cc1ccc2nc(-c3ccc(NC(=O)c4ccc(NC(=O)OCC5c6ccccc6-c6ccccc65)cc4)cc3)sc2c1S(=O)(=O)O.N [Compound 42],12 ± 3.7
5,Cc1ccc2nc(-c3ccc(NC(=O)c4ccc(NC(=S)Nc5ccccc5)cc4)cc3)sc2c1S(=O)(=O)O.N [Compound 43],29 ± 6.9
6,Cc1ccc2nc(-c3ccc(NC(=O)c4ccc(NC(=O)c5ccc(C(F)(F)F)cc5)cc4)cc3)sc2c1S(=O)(=O)O.N [Compound 44],10.4 ± 1.9
7,Cc1ccc2nc(-c3ccc(NC(=O)c4ccc(NC(=O)Nc5ccccc5)cc4)cc3)sc2c1S(=O)(=O)O.N [Compound 45],44 ± 12

# Same assay, conditions: standard HCV helicase MBHA (Table 9); read-out: DNA Unwinding IC50
row,SMILES,IC50 [µM]
1,Cc1ccc2nc(-c3ccc4nc(-c5ccc(NC(=O)c6ccc7nc(-c8ccc(NC(=O)OCC9c%10ccccc%10-c%10ccccc%109)cc8)sc7c6)cc5)sc4c3)sc2c1S(=O)(=O)O.N [Compound 36],4 ± 2
2,Cc1ccc2nc(-c3ccc(NC(=O)c4ccc(NC(=O)c5ccccc5)cc4)cc3)sc2c1S(=O)(=O)O.N [Compound 40],81 ± 22
3,Cc1ccc2nc(-c3ccc4nc(-c5ccc(NC(=O)c6ccc(CNC(=O)OCC7c8ccccc8-c8ccccc87)cc6)cc5)sc4c3)sc2c1S(=O)(=O)O.N [Compound 41],4
4,Cc1ccc2nc(-c3ccc(NC(=O)c4ccc(NC(=O)OCC5c6ccccc6-c6ccccc65)cc4)cc3)sc2c1S(=O)(=O)O.N [Compound 42],12 ± 4
5,Cc1ccc2nc(-c3ccc(NC(=O)c4ccc(NC(=S)Nc5ccccc5)cc4)cc3)sc2c1S(=O)(=O)O.N [Compound 43],29 ± 7
6,Cc1ccc2nc(-c3ccc(NC(=O)c4ccc(NC(=O)c5ccc(C(F)(F)F)cc5)cc4)cc3)sc2c1S(=O)(=O)O.N [Compound 44],10 ± 2
7,Cc1ccc2nc(-c3ccc(NC(=O)c4ccc(NC(=O)Nc5ccccc5)cc4)cc3)sc2c1S(=O)(=O)O.N [Compound 45],44 ± 12

# Biological target: T2, E. coli SSB-Cy5-dT15 complex (Escherichia coli, UniProt P0AGE0)
# T2 construct: purchased Promega
# Assay: Escherichia coli SSB Cy5-dT15 binding assay (fluorescence polarization)
# Details: disruption of Cy5-dT15-SSB complex; read-out: Cy5-dT15-SSB Binding IC50
# Method in brief: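 Compounds in DMSO (final 1% for screening, 5% for IC50 determination) added to MOPS pH 7.5 buffer with MgCl2, BSA, Tween 20 and DTT containing 20 nM SSB and 5 nM Cy5-dT15 probe. Displacement followed by polarization at 667 nm after 635 nm excitation.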
# T2 sequence (P0AGE0 2-178, one chain of several): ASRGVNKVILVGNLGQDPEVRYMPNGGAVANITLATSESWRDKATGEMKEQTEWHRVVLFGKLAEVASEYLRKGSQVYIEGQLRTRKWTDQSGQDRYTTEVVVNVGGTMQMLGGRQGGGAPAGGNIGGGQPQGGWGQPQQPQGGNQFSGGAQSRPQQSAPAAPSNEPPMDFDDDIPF
row,SMILES,IC50 [µM]
1,Cc1ccc2nc(-c3ccc4nc(-c5ccc(NC(=O)c6ccc7nc(-c8ccc(NC(=O)OCC9c%10ccccc%10-c%10ccccc%109)cc8)sc7c6)cc5)sc4c3)sc2c1S(=O)(=O)O.N [Compound 36],5 ± 1
2,Cc1ccc2nc(-c3ccc(NC(=O)c4ccc(NC(=O)c5ccccc5)cc4)cc3)sc2c1S(=O)(=O)O.N [Compound 40],57 ± 13
3,Cc1ccc2nc(-c3ccc4nc(-c5ccc(NC(=O)c6ccc(CNC(=O)OCC7c8ccccc8-c8ccccc87)cc6)cc5)sc4c3)sc2c1S(=O)(=O)O.N [Compound 41],57 ± 16
4,Cc1ccc2nc(-c3ccc(NC(=O)c4ccc(NC(=O)OCC5c6ccccc6-c6ccccc65)cc4)cc3)sc2c1S(=O)(=O)O.N [Compound 42],27 ± 5
5,Cc1ccc2nc(-c3ccc(NC(=O)c4ccc(NC(=S)Nc5ccccc5)cc4)cc3)sc2c1S(=O)(=O)O.N [Compound 43],23 ± 5
6,Cc1ccc2nc(-c3ccc(NC(=O)c4ccc(NC(=O)c5ccc(C(F)(F)F)cc5)cc4)cc3)sc2c1S(=O)(=O)O.N [Compound 44],23 ± 6
7,Cc1ccc2nc(-c3ccc(NC(=O)c4ccc(NC(=O)Nc5ccccc5)cc4)cc3)sc2c1S(=O)(=O)O.N [Compound 45],20 ± 4

# Same assay, conditions: read-out: SSB % Displaced @ 100 μM
row,SMILES,inhibition at 100 µM [%]
1,Cc1ccc2nc(-c3ccc4nc(-c5ccc(NC(=O)c6ccc7nc(-c8ccc(NC(=O)OCC9c%10ccccc%10-c%10ccccc%109)cc8)sc7c6)cc5)sc4c3)sc2c1S(=O)(=O)O.N [Compound 36],95
2,Cc1ccc2nc(-c3ccc(NC(=O)c4ccc(NC(=O)c5ccccc5)cc4)cc3)sc2c1S(=O)(=O)O.N [Compound 40],84
3,Cc1ccc2nc(-c3ccc4nc(-c5ccc(NC(=O)c6ccc(CNC(=O)OCC7c8ccccc8-c8ccccc87)cc6)cc5)sc4c3)sc2c1S(=O)(=O)O.N [Compound 41],59
4,Cc1ccc2nc(-c3ccc(NC(=O)c4ccc(NC(=O)OCC5c6ccccc6-c6ccccc65)cc4)cc3)sc2c1S(=O)(=O)O.N [Compound 42],93
5,Cc1ccc2nc(-c3ccc(NC(=O)c4ccc(NC(=S)Nc5ccccc5)cc4)cc3)sc2c1S(=O)(=O)O.N [Compound 43],93
6,Cc1ccc2nc(-c3ccc(NC(=O)c4ccc(NC(=O)c5ccc(C(F)(F)F)cc5)cc4)cc3)sc2c1S(=O)(=O)O.N [Compound 44],86
7,Cc1ccc2nc(-c3ccc(NC(=O)c4ccc(NC(=O)Nc5ccccc5)cc4)cc3)sc2c1S(=O)(=O)O.N [Compound 45],96

# Same assay, conditions: read-out: SSB EC50
row,SMILES,EC50 [µM]
1,Cc1ccc2nc(-c3ccc4nc(-c5ccc(NC(=O)c6ccc7nc(-c8ccc(NC(=O)OCC9c%10ccccc%10-c%10ccccc%109)cc8)sc7c6)cc5)sc4c3)sc2c1S(=O)(=O)O.N [Compound 36],5
2,Cc1ccc2nc(-c3ccc(NC(=O)c4ccc(NC(=O)c5ccccc5)cc4)cc3)sc2c1S(=O)(=O)O.N [Compound 40],57
3,Cc1ccc2nc(-c3ccc4nc(-c5ccc(NC(=O)c6ccc(CNC(=O)OCC7c8ccccc8-c8ccccc87)cc6)cc5)sc4c3)sc2c1S(=O)(=O)O.N [Compound 41],57
4,Cc1ccc2nc(-c3ccc(NC(=O)c4ccc(NC(=O)OCC5c6ccccc6-c6ccccc65)cc4)cc3)sc2c1S(=O)(=O)O.N [Compound 42],27
5,Cc1ccc2nc(-c3ccc(NC(=O)c4ccc(NC(=S)Nc5ccccc5)cc4)cc3)sc2c1S(=O)(=O)O.N [Compound 43],23
6,Cc1ccc2nc(-c3ccc(NC(=O)c4ccc(NC(=O)c5ccc(C(F)(F)F)cc5)cc4)cc3)sc2c1S(=O)(=O)O.N [Compound 44],23
7,Cc1ccc2nc(-c3ccc(NC(=O)c4ccc(NC(=O)Nc5ccccc5)cc4)cc3)sc2c1S(=O)(=O)O.N [Compound 45],20

# — patent US9464064B2, “HCV helicase inhibitors and methods of use thereof” (University of Kansas, priority 2011, dated 2016)
